Laboratory results taken from ChEMBL document CHEMBL1938275, “Antibacterial activity of chalcones, hydrazones and oxadiazoles against methicillin-resistant Staphylococcus aureus” (Bioorg Med Chem Lett, 2012).

Columns and labels:
[1] = system: Staphylococcus aureus; assay: Antibacterial activity against methicillin-resistant Staphylococcus aureus isolate 7 after 24 hrs by broth microdilution method; assay type: functional; settings: isolate 7, 24 h
[2] = system: Staphylococcus aureus; assay: Antibacterial activity against methicillin-resistant Staphylococcus aureus isolate 11 after 24 hrs by broth microdilution method; assay type: functional; settings: isolate 11, 24 h
[3] = system: Staphylococcus aureus; assay: Antibacterial activity against methicillin-resistant Staphylococcus aureus isolate 4 after 24 hrs by broth microdilution method; assay type: functional; settings: isolate 4, 24 h
[4] = system: Staphylococcus aureus; assay: Antibacterial activity against methicillin-resistant Staphylococcus aureus isolate 8 after 24 hrs by broth microdilution method; assay type: functional; settings: isolate 8, 24 h
[5] = system: Staphylococcus aureus; assay: Antibacterial activity against methicillin-resistant Staphylococcus aureus isolate 9 after 24 hrs by broth microdilution method; assay type: functional; settings: isolate 9, 24 h
[6] = system: Staphylococcus aureus; assay: Antibacterial activity against methicillin-sensitive Staphylococcus aureus ATCC 25923 after 24 hrs by broth microdilution method; assay type: functional; settings: ATCC 25923, 24 h
[7] = system: Staphylococcus aureus; assay: Antibacterial activity against methicillin-resistant Staphylococcus aureus isolate 6 after 24 hrs by broth microdilution method; assay type: functional; settings: isolate 6, 24 h
[8] = system: Staphylococcus aureus; assay: Antibacterial activity against methicillin-resistant Staphylococcus aureus isolate 2 after 24 hrs by broth microdilution method; assay type: functional; settings: isolate 2, 24 h
[9] = system: Staphylococcus aureus; assay: Antibacterial activity against methicillin-resistant Staphylococcus aureus isolate 12 after 24 hrs by broth microdilution method; assay type: functional; settings: isolate 12, 24 h
[10] = system: Staphylococcus aureus; assay: Antibacterial activity against methicillin-resistant Staphylococcus aureus isolate 3 after 24 hrs by broth microdilution method; assay type: functional; settings: isolate 3, 24 h
[11] = system: Staphylococcus aureus; assay: Antibacterial activity against methicillin-resistant Staphylococcus aureus isolate 1 after 24 hrs by broth microdilution method; assay type: functional; settings: isolate 1, 24 h
[12] = system: Staphylococcus aureus; assay: Antibacterial activity against methicillin-resistant Staphylococcus aureus isolate 13 after 24 hrs by broth microdilution method; assay type: functional; settings: isolate 13, 24 h
[13] = system: Staphylococcus aureus; assay: Antibacterial activity against methicillin-resistant Staphylococcus aureus isolate 14 after 24 hrs by broth microdilution method; assay type: functional; settings: isolate 14, 24 h
[14] = system: Staphylococcus aureus; assay: Antibacterial activity against methicillin-resistant Staphylococcus aureus isolate 5 after 24 hrs by broth microdilution method; assay type: functional; settings: isolate 5, 24 h
[15] = system: Staphylococcus aureus; assay: Antibacterial activity against methicillin-resistant Staphylococcus aureus isolate 10 after 24 hrs by broth microdilution method; assay type: functional; settings: isolate 10, 24 h
[16] = system: Staphylococcus aureus; assay: Selectivity index, Ratio of CC50 for african green monkey Vero cells to IC50 for Staphylococcus aureus
[17] = system: Vero; assay: Cytotoxicity against African green monkey Vero cells assessed as inhibition of cell growth after 72 hrs by MTT assay; assay type: cell-based; settings: Chlorocebus sabaeus
[18] = Cytotoxicity against african green monkey Vero cells assessed as cell death after 72 hrs by MTT assay; assay type: cell-based; settings: chlorocebus sabaeus
[19] = system: Staphylococcus aureus; assay: Antibacterial activity against methicillin-resistant Staphylococcus aureus isolate 5 at 30 ug after 24 hrs by disk diffusion assay; assay type: functional; settings: isolate 5, 24 h, read-out: DIZ
[20] = system: Staphylococcus aureus; assay: Antibacterial activity against methicillin-resistant Staphylococcus aureus isolate 4 at 30 ug after 24 hrs by disk diffusion assay; assay type: functional; settings: isolate 4, 24 h, read-out: DIZ

O=C(CCc1ccccc1O)c1ccccc1
≥ 1000 µg/mL: MIC [1] | MIC [2] | MIC [3] | MIC [4] | MIC [5] | MIC [7] | MIC [8] | MIC [9] | MIC [10] | MIC [11] | MIC [12] | MIC [13] | MIC [14] | MIC [15]
500 µg/mL: MIC [6]

CC(C)=CCc1c(O)ccc(C(=O)/C=C/c2ccc(O)cc2)c1O [ISOBAVACHALCONE]
125 µg/mL: MIC [1] | MIC [4] | MIC [12] | MIC [15]
31.2 µg/mL: IC50 [17] | MIC [6]
727 µg/mL: CC50 at 72 h [18]
15.6 µg/mL: MIC [3]
23.25: Ratio CC50/IC50 [16]
62.5 µg/mL: MIC [2] | MIC [5] | MIC [7] | MIC [8] | MIC [9] | MIC [10] | MIC [11] | MIC [13] | MIC [14]

CN[C@H](CC(C)C)C(=O)N[C@H]1C(=O)N[C@@H](CC(N)=O)C(=O)N[C@H]2C(=O)N[C@H]3C(=O)N[C@H](C(=O)N[C@H](C(=O)O)c4cc(O)cc(O)c4-c4cc3ccc4O)[C@H](O)c3ccc(c(Cl)c3)Oc3cc2cc(c3O[C@@H]2O[C@H](CO)[C@@H](O)[C@H](O)[C@H]2O[C@H]2C[C@](C)(N)[C@H](O)[C@H](C)O2)Oc2ccc(cc2Cl)[C@H]1O [VANCOMYCIN]
0.8 µg/mL: MIC [1] | MIC [2] | MIC [3] | MIC [4] | MIC [5] | MIC [8] | MIC [9] | MIC [10] | MIC [11] | MIC [12] | MIC [13] | MIC [15]
0.4 µg/mL: MIC [7] | MIC [14]
0.2 µg/mL: MIC [6]

CO[C@@]1(NC(=O)Cc2cccs2)C(=O)N2C(C(=O)O)=C(COC(N)=O)CS[C@@H]21 [CEFOXITIN]
22 mm: zone of inhibition at 30 µg/disc [20]
33 mm: zone of inhibition at 30 µg/disc [19]

COc1ccc(C(=O)/C=C/c2ccc(O)cc2)c(O)c1CC=C(C)C
≥ 1000 µg/mL: MIC [1] | MIC [2] | MIC [3] | MIC [4] | MIC [5] | MIC [7] | MIC [8] | MIC [9] | MIC [10] | MIC [11] | MIC [12] | MIC [13] | MIC [14] | MIC [15]

CC(C)=CCC/C(C)=C/Cc1c(O)ccc(C(=O)/C=C/c2ccc(O)c(CC=C(C)C)c2)c1O
31.2 µg/mL: MIC [6]

COc1cc(C(=O)N/N=C/c2ccc([N+](=O)[O-])s2)cc(OC)c1OC
125 µg/mL: MIC [1] | MIC [2] | MIC [4] | MIC [5] | MIC [7] | MIC [8] | MIC [9] | MIC [10] | MIC [11] | MIC [12] | MIC [13] | MIC [14] | MIC [15]
15.6 µg/mL: MIC [3] | MIC [6]
109.7: Ratio CC50/IC50 [16]
857 µg/mL: CC50 at 72 h [18]
7.81 µg/mL: IC50 [17]

O=C(N/N=C/c1ccc([N+](=O)[O-])o1)c1ccccc1
62.5 µg/mL: MIC [6] | MIC [7] | MIC [8] | MIC [9] | MIC [10] | MIC [12] | MIC [13] | MIC [14]
125 µg/mL: MIC [1] | MIC [2] | MIC [4] | MIC [5] | MIC [11]
62.6: Ratio CC50/IC50 [16]
489 µg/mL: CC50 at 72 h [18]
7.81 µg/mL: IC50 [17]
15.6 µg/mL: MIC [3] | MIC [15]

O=C(CCc1ccc(O)cc1)c1c(O)cc(O)cc1O [PHLORETIN]
5.9: Ratio CC50/IC50 [16]
125 µg/mL: IC50 [17]
735 µg/mL: CC50 at 72 h [18]
250 µg/mL: MIC [1] | MIC [2] | MIC [3] | MIC [4] | MIC [5] | MIC [6] | MIC [7] | MIC [8] | MIC [9] | MIC [10] | MIC [11] | MIC [12] | MIC [13] | MIC [14] | MIC [15]

O=C(/C=C/c1ccc(O)cc1)c1ccc(O)cc1O [ISOLIQUIRITIGENIN]
62.5 µg/mL: MIC [1] | MIC [2] | MIC [3] | MIC [4] | MIC [5] | MIC [7] | MIC [8] | MIC [9] | MIC [10] | MIC [11] | MIC [12] | MIC [13] | MIC [14] | MIC [15]
464 µg/mL: CC50 at 72 h [18]
14.8: Ratio CC50/IC50 [16]
31.2 µg/mL: IC50 [17] | MIC [6]
